Measured values reported in patent publication US20080292619A1, “Pharmaceutical Composition Containing Meltrin Antagonist” (MOCHIDA PHARMACEUTICAL CO., LTD., priority 2004, published 2008).

Test system: human meltrin α RNA
Experiment: Suppression of human meltrin α expression by antisense compound in RD cell (real time PCR)
Type: cell-based
Settings: 50 nM; RD cell; corrected by GAPDH
Outline: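 RD cells transfected with heat-denatured antisense oligodeoxynucleotide plus Lipofectin in Opti-MEM for 4 h at 37° C, then cultured 18 h. Meltrin α RNA quantified by TaqMan RT-PCR against plasmid standard curve, GAPDH-corrected; suppression vs untreated cells, rated +/++/+++ for ≥30/50/70%.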

Substance | suppression rate of expression, 50 nM
H132 + 18: tgggtaggaatctggcggct (TGGGTAGGAATCTGGCGGCT; antisense; DNA, all phosphorothioate, methylation of C not given here) | + (“+” when the suppression rate was at least 30%)
H132 + 19: gtgggtaggaatctggcggc (GTGGGTAGGAATCTGGCGGC; antisense; DNA, all phosphorothioate, methylation of C not given here) | + (“+” when the suppression rate was at least 30%)
H133 + 1: cggtgggtaggaatctggcg (CGGTGGGTAGGAATCTGGCG; antisense; DNA, all phosphorothioate, methylation of C not given here) | ++ (“++” when the suppression rate was at least 50%)
H133 + 3: ttcggtgggtaggaatctgg (TTCGGTGGGTAGGAATCTGG; antisense; DNA, all phosphorothioate, methylation of C not given here) | + (“+” when the suppression rate was at least 30%)
H133 + 4: cttcggtgggtaggaatctg (CTTCGGTGGGTAGGAATCTG; antisense; DNA, all phosphorothioate, methylation of C not given here) | ++ (“++” when the suppression rate was at least 50%)
H133 + 5: ccttcggtgggtaggaatct (CCTTCGGTGGGTAGGAATCT; antisense; DNA, all phosphorothioate, methylation of C not given here) | + (“+” when the suppression rate was at least 30%)
H133: ggtgggtaggaatctggcgg (GGTGGGTAGGAATCTGGCGG; antisense; DNA, all phosphorothioate, methylation of C not given here) | +++ (“+++” when the suppression rate was at least 70%)
H134: atctcctgggattgtccttc (ATCTCCTGGGATTGTCCTTC; antisense; DNA, all phosphorothioate, methylation of C not given here) | + (“+” when the suppression rate was at least 30%)
H135: aacattctgacactgcagca (AACATTCTGACACTGCAGCA; antisense; DNA, all phosphorothioate, methylation of C not given here) | + (“+” when the suppression rate was at least 30%)
H136 + 5: ggccgttgaggggtctgctg (GGCCGTTGAGGGGTCTGCTG; antisense; DNA, all phosphorothioate, methylation of C not given here) | + (“+” when the suppression rate was at least 30%)
H136 + 15: gggacattcaggccgttgag (GGGACATTCAGGCCGTTGAG; antisense; DNA, all phosphorothioate, methylation of C not given here) | + (“+” when the suppression rate was at least 30%)
H136 + 16: agggacattcaggccgttga (AGGGACATTCAGGCCGTTGA; antisense; DNA, all phosphorothioate, methylation of C not given here) | + (“+” when the suppression rate was at least 30%)
H136 + 17: gagggacattcaggccgttg (GAGGGACATTCAGGCCGTTG; antisense; DNA, all phosphorothioate, methylation of C not given here) | + (“+” when the suppression rate was at least 30%)
H136 + 18: tgagggacattcaggccgtt (TGAGGGACATTCAGGCCGTT; antisense; DNA, all phosphorothioate, methylation of C not given here) | ++ (“++” when the suppression rate was at least 50%)
H136: ttgaggggtctgctgatgtc (TTGAGGGGTCTGCTGATGTC; antisense; DNA, all phosphorothioate, methylation of C not given here) | + (“+” when the suppression rate was at least 30%)
H137 + 1: ggctgagggacattcaggcc (GGCTGAGGGACATTCAGGCC; antisense; DNA, all phosphorothioate, methylation of C not given here) | ++ (“++” when the suppression rate was at least 50%)
H137 + 2: gggctgagggacattcaggc (GGGCTGAGGGACATTCAGGC; antisense; DNA, all phosphorothioate, methylation of C not given here) | +++ (“+++” when the suppression rate was at least 70%)

Substance | suppression rate of expression, 50 nM
H137 + 3: ggggctgagggacattcagg (GGGGCTGAGGGACATTCAGG; antisense; DNA, all phosphorothioate, methylation of C not given here) | ++ (“++” when the suppression rate was at least 50%)
H137 + 4: tggggctgagggacattcag (TGGGGCTGAGGGACATTCAG; antisense; DNA, all phosphorothioate, methylation of C not given here) | ++ (“++” when the suppression rate was at least 50%)
H137: gctgagggacattcaggccg (GCTGAGGGACATTCAGGCCG; antisense; DNA, all phosphorothioate, methylation of C not given here) | ++ (“++” when the suppression rate was at least 50%)
H138: cactcgctgagttgactggg (CACTCGCTGAGTTGACTGGG; antisense; DNA, all phosphorothioate, methylation of C not given here) | ++ (“++” when the suppression rate was at least 50%)
H139 + 10: tgcacgtggggcccggtgga (TGCACGTGGGGCCCGGTGGA; antisense; DNA, all phosphorothioate, methylation of C not given here) | + (“+” when the suppression rate was at least 30%)
H139 + 11: gtgcacgtggggcccggtgg (GTGCACGTGGGGCCCGGTGG; antisense; DNA, all phosphorothioate, methylation of C not given here) | + (“+” when the suppression rate was at least 30%)
H139 + 12: ggtgcacgtggggcccggtg (GGTGCACGTGGGGCCCGGTG; antisense; DNA, all phosphorothioate, methylation of C not given here) | + (“+” when the suppression rate was at least 30%)
H139 + 13: aggtgcacgtggggcccggt (AGGTGCACGTGGGGCCCGGT; antisense; DNA, all phosphorothioate, methylation of C not given here) | + (“+” when the suppression rate was at least 30%)
H139 + 15: ctaggtgcacgtggggcccg (CTAGGTGCACGTGGGGCCCG; antisense; DNA, all phosphorothioate, methylation of C not given here) | +++ (“+++” when the suppression rate was at least 70%)
H139 + 16: gctaggtgcacgtggggccc (GCTAGGTGCACGTGGGGCCC; antisense; DNA, all phosphorothioate, methylation of C not given here) | ++ (“++” when the suppression rate was at least 50%)
H139 + 17: cgctaggtgcacgtggggcc (CGCTAGGTGCACGTGGGGCC; antisense; DNA, all phosphorothioate, methylation of C not given here) | + (“+” when the suppression rate was at least 30%)
H139 + 18: acgctaggtgcacgtggggc (ACGCTAGGTGCACGTGGGGC; antisense; DNA, all phosphorothioate, methylation of C not given here) | ++ (“++” when the suppression rate was at least 50%)
H139 + 19: gacgctaggtgcacgtgggg (GACGCTAGGTGCACGTGGGG; antisense; DNA, all phosphorothioate, methylation of C not given here) | + (“+” when the suppression rate was at least 30%)
H139: gcccggtggaggggaggaag (GCCCGGTGGAGGGGAGGAAG; antisense; DNA, all phosphorothioate, methylation of C not given here) | + (“+” when the suppression rate was at least 30%)
H140: ggacgctaggtgcacgtggg (GGACGCTAGGTGCACGTGGG; antisense; DNA, all phosphorothioate, methylation of C not given here) | + (“+” when the suppression rate was at least 30%)
H141 + 15: cctaagtgcaggcttggctg (CCTAAGTGCAGGCTTGGCTG; antisense; DNA, all phosphorothioate, methylation of C not given here) | + (“+” when the suppression rate was at least 30%)

Same assay, conditions: 200 nM; RD cell; corrected by GAPDH

Substance | suppression rate of expression, 200 nM
H132: cttcctcatcaggccttttc (CTTCCTCATCAGGCCTTTTC; antisense; DNA, all phosphorothioate, methylation of C not given here) | ++ (“++” when the suppression rate was at least 50%)
H133: ggtgggtaggaatctggcgg (GGTGGGTAGGAATCTGGCGG; antisense; DNA, all phosphorothioate, methylation of C not given here) | +++ (“+++” when the suppression rate was at least 70%)
H134: atctcctgggattgtccttc (ATCTCCTGGGATTGTCCTTC; antisense; DNA, all phosphorothioate, methylation of C not given here) | ++ (“++” when the suppression rate was at least 50%)
H135: aacattctgacactgcagca (AACATTCTGACACTGCAGCA; antisense; DNA, all phosphorothioate, methylation of C not given here) | ++ (“++” when the suppression rate was at least 50%)
H136: ttgaggggtctgctgatgtc (TTGAGGGGTCTGCTGATGTC; antisense; DNA, all phosphorothioate, methylation of C not given here) | +++ (“+++” when the suppression rate was at least 70%)
H137: gctgagggacattcaggccg (GCTGAGGGACATTCAGGCCG; antisense; DNA, all phosphorothioate, methylation of C not given here) | ++ (“++” when the suppression rate was at least 50%)
H138: cactcgctgagttgactggg (CACTCGCTGAGTTGACTGGG; antisense; DNA, all phosphorothioate, methylation of C not given here) | +++ (“+++” when the suppression rate was at least 70%)
H139: gcccggtggaggggaggaag (GCCCGGTGGAGGGGAGGAAG; antisense; DNA, all phosphorothioate, methylation of C not given here) | +++ (“+++” when the suppression rate was at least 70%)
H140: ggacgctaggtgcacgtggg (GGACGCTAGGTGCACGTGGG; antisense; DNA, all phosphorothioate, methylation of C not given here) | +++ (“+++” when the suppression rate was at least 70%)
H141: ggctggcaggggtctggcag (GGCTGGCAGGGGTCTGGCAG; antisense; DNA, all phosphorothioate, methylation of C not given here) | ++ (“++” when the suppression rate was at least 50%)
